# Reference: patent publication US20250136552A1, “ANTAGONISTS OF CAV 2.3” (LARIO THERAPEUTICS LIMITED, priority 2021, published 2025)
# Biological target: Cav2.3 (Homo sapiens, UniProt Q15878)
# Experiment: Human Cav2.3 channel calcium-influx assay
# Format: cell-based
# Conditions: HEK-293 T-Rex/Kir2.1 cells with inducible Cav2.3e-β4-α2δ1; Fluo8 fluorescence; 8-point dose response from 30 μM; no pluronic acid; read-out: Cav2.3 (pIC50) (converted)
# Protocol: HEK-293 T-Rex cells were transfected with pcDNA3.1-Kir2.1 to generate a stable cell line. After antibiotic selection, the obtained stable pools were analysed using FLIPR^TETRA(membrane potential assay), and a limiting dilution was performed and a HEK-293 T-Rex/Kir2.1 clone was selected. The clone was transfected with pcDNA3.1-Cav2.3e and pBud-Cav-β4-α2δ1 to generate a stable cell line where the Cav2.3e expression is inducible. After antibiotic selection, functional clone pool analysis and two successive limiting dilutions, the final clone underwent a qPCR analysis and a biophysical and pharmacological validation using patch-clamp.
# A compound plate, containing 10 test compounds in eight-points dose response with n=4, was prepared. Test compounds dose response curves were prepared in automated fashion in 100% DMSO at CyBio Felix and starting from a stock solution in 100% DMSO; a defined volume was serially moved into destination wells pre-filled with the desired DMSO volume; stock solution concentration volumes were dependent on the final compounds concentrations to be tested and the final DMSO content used in the assay. For the assay test compounds dose response curves ranged from 30 μM and half log dilution with 0.3% final DMSO. In order to obtain the 8-points dose response curve all the concentrations were created by starting from a 10 mM DMSO stock solution and then moving 9.5 μL into a destination well pre-filled with 20.5 μL of 100% DMSO and repeating this step seven times. This initial step was done into 96 MTP plates, 10 compounds/plate. One 384 MTP was then reformatted to contain all the 10 compounds at 8 concentrations, quadruplicate data points. This so obtained 384 MTP compound plate served as source plate in a “mother to child” process with a CyBi®-Well dispenser in which 0.7 μL of compounds were moved into a destination plate pre-filled with 57.6 μL of Tyrode's buffer 0 mM K^+, thus obtaining 4× concentrated compounds solution. In columns 1-2 and 23-24 the control wells were added. Both “source” compound plate and “destination” compound plate were barcoded and a relationship between the two plates was thus generated.
# The day before the experiment, cells were detached by gentle wash with DPBS, followed by 5 min incubation at 37° C. with Trypsin solution. Detached cells were diluted with OptiMEM+Doxycycline at 0.2 μg/mL, counted and plated in Poly-D-Lysine coated black/clear bottom (15.000 c/well in 20 μl/well) by the use of a MATRIX WellMate dispenser. Plates were placed into a humidified incubator at 37° C. with 5% CO2 until the experimental day. 24 h after seeding 10 μL/well of 1.5× Fluo8 NW dye solution prepared in Tyrode's buffer 0 mM K^+ were added on top of the seeding medium. Cell plates were incubated for 40-60 min at RT in the dark. We then Injected off-line 10 μL/well of test compounds and controls 4× concentrated in Tyrode's Buffer 0 mM K+ with the CyBi®-Well instrument. Cell plates were incubated 3 minutes at RT. Finally, we injected 20 μL/well of 3× concentrated activator solution (K20-Na130-Ca2 buffer: 20 mM KCl, 130 mM NaCl, 2 mM CaCl2, 10 mM HEPES, 10 mM Glucose, final concentrations, prepared starting from “K0-Na150-Ca2” and “K150-Na0-Ca2” buffers) at FDSS7000EX instrument and read emitted fluorescence for 130 seconds.
# Data analysis was performed with Genedata Screener® software and reported compounds activity as % effect in relation to the normalization standards. The Kinetic Response Value (KRV) is calculated as follows:
# KRV=Maximal fluorescence recorded from second 5 to second 130 minus baseline fluorescence, computed as average from second 1 to second 2, of the kinetic trace. The KRV was normalized versus Neutral Controls and Inhibitor Controls in order to obtain the Activity[%] for each well. […] Therefore, the compound activity values were scaled (based on the two references) to a common range (two-point normalization). […]
# Cav2.3, sequence (Q15878 1-2270 isoform Q15878-3): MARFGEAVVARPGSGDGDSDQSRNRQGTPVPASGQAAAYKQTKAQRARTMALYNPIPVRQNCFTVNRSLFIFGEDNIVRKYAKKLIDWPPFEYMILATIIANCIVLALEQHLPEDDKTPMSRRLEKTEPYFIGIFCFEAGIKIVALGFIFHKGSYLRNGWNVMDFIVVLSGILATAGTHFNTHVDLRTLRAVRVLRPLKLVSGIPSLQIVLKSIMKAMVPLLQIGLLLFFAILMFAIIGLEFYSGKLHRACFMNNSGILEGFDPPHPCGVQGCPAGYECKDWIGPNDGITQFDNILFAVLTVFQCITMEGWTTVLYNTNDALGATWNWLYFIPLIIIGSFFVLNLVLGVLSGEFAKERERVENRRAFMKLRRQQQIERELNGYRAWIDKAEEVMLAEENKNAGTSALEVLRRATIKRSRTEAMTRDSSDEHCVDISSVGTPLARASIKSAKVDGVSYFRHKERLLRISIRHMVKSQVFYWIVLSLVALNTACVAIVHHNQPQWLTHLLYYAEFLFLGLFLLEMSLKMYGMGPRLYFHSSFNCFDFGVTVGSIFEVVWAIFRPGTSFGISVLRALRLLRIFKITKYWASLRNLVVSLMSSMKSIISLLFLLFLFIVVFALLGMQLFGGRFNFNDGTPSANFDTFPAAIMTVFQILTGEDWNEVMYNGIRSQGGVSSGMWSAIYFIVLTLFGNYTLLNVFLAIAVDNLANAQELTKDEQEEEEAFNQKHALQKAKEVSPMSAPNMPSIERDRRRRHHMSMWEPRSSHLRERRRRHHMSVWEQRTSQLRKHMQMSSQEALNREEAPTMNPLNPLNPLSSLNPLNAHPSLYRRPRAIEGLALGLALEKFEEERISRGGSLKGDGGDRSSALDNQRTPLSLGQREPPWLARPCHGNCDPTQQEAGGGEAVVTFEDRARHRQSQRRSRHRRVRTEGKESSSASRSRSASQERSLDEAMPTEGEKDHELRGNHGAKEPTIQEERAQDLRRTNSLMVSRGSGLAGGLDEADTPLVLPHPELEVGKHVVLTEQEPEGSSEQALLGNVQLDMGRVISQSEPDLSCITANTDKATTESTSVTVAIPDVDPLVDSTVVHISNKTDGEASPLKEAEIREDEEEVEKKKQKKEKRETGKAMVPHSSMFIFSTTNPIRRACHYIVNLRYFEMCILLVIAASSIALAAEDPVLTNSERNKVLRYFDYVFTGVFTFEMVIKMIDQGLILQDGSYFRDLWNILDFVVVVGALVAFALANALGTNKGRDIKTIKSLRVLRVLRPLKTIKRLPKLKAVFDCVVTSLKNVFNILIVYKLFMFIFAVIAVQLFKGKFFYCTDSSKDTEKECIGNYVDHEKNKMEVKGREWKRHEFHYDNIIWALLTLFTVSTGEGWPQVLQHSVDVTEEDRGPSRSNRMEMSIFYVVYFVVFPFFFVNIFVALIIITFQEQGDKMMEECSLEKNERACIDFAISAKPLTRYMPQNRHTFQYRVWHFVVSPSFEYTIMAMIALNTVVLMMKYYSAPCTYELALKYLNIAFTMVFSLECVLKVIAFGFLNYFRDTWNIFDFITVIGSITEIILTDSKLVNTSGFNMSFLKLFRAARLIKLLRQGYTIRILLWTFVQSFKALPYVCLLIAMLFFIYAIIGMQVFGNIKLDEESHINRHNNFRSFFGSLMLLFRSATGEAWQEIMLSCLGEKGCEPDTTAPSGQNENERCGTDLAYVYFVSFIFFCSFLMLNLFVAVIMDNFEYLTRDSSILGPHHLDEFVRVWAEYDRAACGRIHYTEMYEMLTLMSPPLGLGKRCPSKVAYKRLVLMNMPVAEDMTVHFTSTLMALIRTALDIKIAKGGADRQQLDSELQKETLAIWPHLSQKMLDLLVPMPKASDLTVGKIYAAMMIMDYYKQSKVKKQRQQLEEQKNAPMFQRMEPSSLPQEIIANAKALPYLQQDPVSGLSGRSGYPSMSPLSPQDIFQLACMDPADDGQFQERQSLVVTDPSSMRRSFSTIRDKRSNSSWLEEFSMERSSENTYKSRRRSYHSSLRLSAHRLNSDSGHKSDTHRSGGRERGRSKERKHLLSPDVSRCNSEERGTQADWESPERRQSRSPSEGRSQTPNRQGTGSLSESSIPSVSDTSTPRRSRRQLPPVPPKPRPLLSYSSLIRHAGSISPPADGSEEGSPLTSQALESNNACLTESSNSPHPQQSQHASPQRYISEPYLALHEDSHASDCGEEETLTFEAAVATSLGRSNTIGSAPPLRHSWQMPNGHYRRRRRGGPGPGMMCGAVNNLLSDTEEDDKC
row,IC50 [µM],Compound
1,3.31,"CC(C)C(=O)N1CCc2ccc(S(=O)(=O)N(CCF)[C@@H](c3ccc(F)cc3)C(F)(F)F)cc2C1 [Example 50, (S)-N-(2-fluoroethyl)-2-isobutyryl-N-(2,2,2-trifluoro-1-(4-fluorophenyl)ethyl)-1,2,3,4-tetrahydroisoquinoline-7-sulfonamide]"
2,0.437,"CCN(C(c1ccc(F)cc1)C(F)(F)F)S(=O)(=O)c1ccc2c(c1)CN(C(=O)C(C)C)CC2 (stereo not shown) [Example 5, N-ethyl-2-isobutyryl-N-(2,2,2-trifluoro-1-(4-fluorophenyl)ethyl)-1,2,3,4-tetrahydroisoquinoline-7-sulfonamide]"
3,2.04,"C[C@@H](c1ccccc1)N(C)S(=O)(=O)c1ccc2c(c1)CN(C(=O)C(F)(F)F)CC2 [Example 2, (S)-N-methyl-N-(1-phenylethyl)-2-(2,2,2-trifluoroacetyl)-1,2,3,4-tetrahydroisoquinoline-7-sulfonamide]"
4,0.891,"CCN([C@H](c1ccc(F)cc1)C(F)(F)F)S(=O)(=O)c1ccc2c(c1)CN(C(=O)C(C)(C)F)CC2 [Example 41, (R)-N-ethyl-2-(2-fluoro-2-methylpropanoyl)-N-(2,2,2-trifluoro-1-(4-fluorophenyl)ethyl)-1,2,3,4-tetrahydroisoquinoline-7-sulfonamide]"
5,0.891,"CC(C)C(=O)N1CCc2ccc(S(=O)(=O)N(C)[C@@H](C)c3ccccc3)cc2C1 [Example 15, (S)-2-isobutyryl-N-methyl-N-(1-phenylethyl)-1,2,3,4-tetrahydroisoquinoline-7-sulfonamide]"
6,0.525,"CCN(C(c1ccc(F)cc1)C(F)(F)F)S(=O)(=O)c1ccc2c(c1)CN(C1COC1)CC2 (stereo not shown) [Example 45, N-ethyl-2-(oxetan-3-yl)-N-(2,2,2-trifluoro-1-(4-fluorophenyl)ethyl)-1,2,3,4-tetrahydroisoquinoline-7-sulfonamide]"
7,3.63,"CCN([C@H](C)c1ccccc1)S(=O)(=O)c1ccc2c(c1)CCN(C(=O)C1CC1)C2 [Example 27, (R)-2-(cyclopropanecarbonyl)-N-ethyl-N-(1-phenylethyl)-1,2,3,4-tetrahydroisoquinoline-6-sulfonamide]"
8,3.98,"CCN([C@@H](C)c1ccc(C(F)(F)F)cc1)S(=O)(=O)c1ccc2c(c1)CCN(C(=O)C1CC1)C2 [Example 21, (S)-2-(cyclopropanecarbonyl)-N-ethyl-N-(1-(4-(trifluoromethyl)phenyl)ethyl)-1,2,3,4-tetrahydroisoquinoline-6-sulfonamide]"
9,3.8,"CCN(C1(c2ccc(F)cc2)COC1)S(=O)(=O)c1ccc2c(c1)CN(C(=O)C(C)C)CC2 [Example 28, N-ethyl-N-(3-(4-fluorophenyl)oxetan-3-yl)-2-isobutyryl-1,2,3,4-tetrahydroisoquinoline-7-sulfonamide]"
10,2,"CCN([C@@H](c1ccc(F)cc1)C(F)(F)F)S(=O)(=O)c1ccc2c(c1)CN(C(=O)C(C)C)CC2 (stereo in doubt) [Example 7, N-ethyl-2-isobutyryl-N-(2,2,2-trifluoro-1-(4-fluorophenyl)ethyl)-1,2,3,4-tetrahydroisoquinoline-7-sulfonamide]"
11,1.02,"C[C@@H](c1ccccc1)N(C)S(=O)(=O)c1ccc2c(c1)CN(C(=O)C1CC1)CC2 [Example 16, (S)-2-(cyclopropanecarbonyl)-N-methyl-N-(1-phenylethyl)-1,2,3,4-tetrahydroisoquinoline-7-sulfonamide]"
12,0.851,"CC(C)C(=O)N1CCc2ccc(S(=O)(=O)N(C)[C@@H](C)c3ccc(F)cc3)cc2C1 [Example 11, (S)-N-(1-(4-fluorophenyl)ethyl)-2-isobutyryl-N-methyl-1,2,3,4-tetrahydroisoquinoline-7-sulfonamide]"
13,2.88,"CC(C)C(=O)N1Cc2ccc(S(=O)(=O)N(C)[C@@H](C)c3ccccc3)cc2C1 [Example 40, (S)-2-isobutyryl-N-methyl-N-(1-phenylethyl)isoindoline-5-sulfonamide]"
14,1.95,"CC(C)C(=O)N1CCc2ccc(S(=O)(=O)N(C)[C@@H](C)c3ccccc3)cc2CC1 [Example 36, (S)-3-isobutyryl-N-methyl-N-(1-phenylethyl)-2,3,4,5-tetrahydro-1H-benzo[d]azepine-7-sulfonamide]"
15,0.955,"CCN([C@@H](C)c1ccc(F)cc1)S(=O)(=O)c1cc(F)c2c(c1)CCN(C(=O)C1CC1)C2 [Example 22, (S)-2-(cyclopropanecarbonyl)-N-ethyl-8-fluoro-N-(1-(4-fluorophenyl)ethyl)-1,2,3,4-tetrahydroisoquinoline-6-sulfonamide]"
16,2,"C[C@@H](c1ccccc1)N(C)S(=O)(=O)c1ccc2c(c1)CN(C(=O)c1ccccc1)CC2 [Example 4, (S)-2-benzoyl-N-methyl-N-(1-phenylethyl)-1,2,3,4-tetrahydroisoquinoline-7-sulfonamide]"
17,0.589,"CCN(C(c1ccc(F)cc1)C(F)(F)F)S(=O)(=O)c1ccc2c(c1)CN(C(=O)C1CCOCC1)CC2 (stereo not shown) [Example 43, N-ethyl-2-(tetrahydro-2H-pyran-4-carbonyl)-N-(2,2,2-trifluoro-1-(4-fluorophenyl)ethyl)-1,2,3,4-tetrahydroisoquinoline-7-sulfonamide]"
18,1.1,"CCN(C(c1ccc(F)cc1)C(F)(F)F)S(=O)(=O)c1ccc2c(c1)CN(C(=O)C(C)(C)F)CC2 (stereo not shown) [Example 18, N-ethyl-2-(2-fluoro-2-methylpropanoyl)-N-(2,2,2-trifluoro-1-(4-fluorophenyl)ethyl)-1,2,3,4-tetrahydroisoquinoline-7-sulfonamide]"
19,4.17,"CCN([C@H](C)c1ccccc1)S(=O)(=O)c1ccc2c(c1)CCN(C(=O)C(C)C)C2 [Example 26, (R)-N-ethyl-2-isobutyryl-N-(1-phenylethyl)-1,2,3,4-tetrahydroisoquinoline-6-sulfonamide]"
20,3.02,"CCN([C@@H](C)c1ccc(F)cc1)S(=O)(=O)c1cc2c(cn1)CN(C(=O)C1CC1)CC2 [Example 34, (S)-7-(cyclopropanecarbonyl)-N-ethyl-N-(1-(4-fluorophenyl)ethyl)-5,6,7,8-tetrahydro-2,7-naphthyridine-3-sulfonamide]"
21,3.72,"CC(C)C(=O)N1CCc2ccc(S(=O)(=O)N(C)[C@@H](c3ccc(F)cc3)C(F)(F)F)cc2C1 [Example 10, (S)-2-isobutyryl-N-methyl-N-(2,2,2-trifluoro-1-(4-fluorophenyl)ethyl)-1,2,3,4-tetrahydroisoquinoline-7-sulfonamide]"
22,2.09,"C[C@@H](c1ccccc1)N(C)S(=O)(=O)c1ccc2c(c1)CN(c1ccncc1)CC2 [Example 3, (S)-N-methyl-N-(1-phenylethyl)-2-(pyridin-4-yl)-1,2,3,4-tetrahydroisoquinoline-7-sulfonamide]"
23,1.74,"CCN([C@@H](C)c1ccc(F)cc1)S(=O)(=O)c1ccc2c(c1)CCN(C(=O)C(C)C)C2 [Example 24, (S)-N-ethyl-N-(1-(4-fluorophenyl)ethyl)-2-isobutyryl-1,2,3,4-tetrahydroisoquinoline-6-sulfonamide]"
24,3.16,"CC(C)C(=O)N1CCCc2cc(S(=O)(=O)N(C)[C@@H](C)c3ccccc3)ccc2C1 [Example 35, (S)-2-Isobutyryl-N-methyl-N-(1-phenylethyl)-2,3,4,5-tetrahydro-1H-benzo[c]azepine-7-sulfonamide]"
25,6.46,"CC(C)N1CCc2cc(S(=O)(=O)N(C)[C@@H](C)c3ccccc3)ccc2C1=O [Example 37, (S)-2-isopropyl-N-methyl-1-oxo-N-(1-phenylethyl)-1,2,3,4-tetrahydroisoquinoline-6-sulfonamide]"
